Tests used:
[1] = test system: MEIS1 and HOXA gene expression in MV4;11 cell lines; assay: MEIS1 and HOXA gene expression by RT-PCR in MV4;11; assay type: cell-based; conditions: for MEIS1 and HOXA gene expression (mRNA levels of MEIS1, HOXA9 and HOXA11): different concentrations
Experimental: FIG. 4 is a bar graph showing that Cpd. No. 57 suppresses MEIS1 and HOXA gene expression in MV4;11 cell lines. Cells were treated with different concentrations of Cpd. No. 57 for 24 h. mRNA levels of MEIS1, HOXA9 and HOXA11 were determined by RT-PCR. *(p<0.05), **(p<0.01).
FIG. 5 is a bar graph showing that Cpd. No. 57 suppresses MEIS1 and HOXA gene expression in MV4;11 cell lines. Cells were treated with different concentrations of Cpd. No. 57 for 6 h. mRNA levels of MEIS1, HOXA9 and HOXA11 were determined by RT-PCR. *(p<0.05), **(p<0.01).
(§1) No. 57 suppresses MEIS1 and HOXA gene expression in MV4;11 and MOLM13 cell lines.

[2] = test system: MEIS1 and HOXA gene expression in MOLM13 cell lines; assay: MEIS1 and HOXA gene expression by RT-PCR in MOLM13; assay type: cell-based
Experimental: FIG. 6 is a bar graph showing that Cpd. No. 57 suppresses MEIS1 and HOXA gene expression in MOLM13 cell lines. Cells were treated with different concentrations of Cpd. No. 57 for 24 h. mRNA levels of MEIS1, HOXA9 and HOXA11 were determined by RT-PCR. *(p<0.05), **(p<0.01).
as §1

SKM-1 (no MLL fusion) = assay: 7-day proliferation assay (WST-8), SKM-1; assay type: cell-based; conditions: Homo sapiens, 168 h, Table 6, 7 days, read-out: IC50 in cell growth inhibition
Experimental: (§2) The effect of representative Compounds of the Disclosure on cell viability was determined in a 7-day proliferation assay. Cells were maintained in the appropriate culture medium with 10% FBS at 37° C. and an atmosphere of 5% CO2.
(§3) Cells were seeded in 96-well flat bottom (Corning COSTAR, Corning, N.Y., cat #3595) at a density of 2,000-3,000 cells/well in 100 μl of culture medium. Compounds were serially diluted in the appropriate medium, and 100 μl of the diluted compounds were added to the appropriate wells of the cell plate. After the addition of compounds, the cells were incubated at 37° C. in an atmosphere of 5% CO2 for 7 days. Cell viability was determined using the WST (2-(2-methoxy-4-nitrophenyl)-3-(4-nitrophenyl)-5-(2,4-disulfophenyl)-2H-tetrazolium, monosodium salt) Cell Counting-8 Kit (Dojindo Molecular Technologies, Inc., Rockville, Md.) according to the manufacturers' instructions.
(§4) WST-8 reagent was added to each well at a final concentration of 10% (v/v), and then the plates were incubated at 37° C. for 1-2 hours for color development. The absorbance was measured at 450 nm using a SPECTRAmax PLUS plate reader (Molecular Devices, Sunnyvale, Calif.). […]

K562 (no MLL fusion) = assay: 7-day proliferation assay (WST-8), K562; assay type: cell-based; conditions: Homo sapiens, 168 h, Table 6, 7 days, read-out: IC50 in cell growth inhibition
Experimental: as §2, §3, §4

MOLM-16 (no MLL fusion) = assay: 7-day proliferation assay (WST-8), MOLM-16; assay type: cell-based; conditions: MOLM16, 168 h, Table 6, 7 days, read-out: IC50 in cell growth inhibition
Experimental: as §2, §3, §4

MonoMac6 = assay: 7-day proliferation assay (WST-8), MonoMac6; assay type: cell-based; conditions: Homo sapiens, MONO-MAC-6, 168 h; Table 6; MonoMac6 (MLL-AF9); 7 days; read-out: IC50 in cell growth inhibition
Experimental: as §2, §3
(§5) WST-8 reagent was added to each well at a final concentration of 10% (v/v), and then the plates were incubated at 37° C. for 1-2 hours for color development. The absorbance was measured at 450 nm using a SPECTRAmax PLUS plate reader (Molecular Devices, Sunnyvale, Calif.). The readings were normalized to the DMSO-treated cells and the half maximal inhibitory concentration (IC50) was calculated by nonlinear regression (four parameters sigmoid fitted with variable slope, least squares fit, and no constraint) analysis using the GraphPad Prism 5 software (GraphPad Software, La Jolla, Calif.).

HL-60 (no MLL fusion) = assay: 7-day proliferation assay (WST-8), HL-60; assay type: cell-based; conditions: Homo sapiens, 168 h, Table 6, 7 days, read-out: IC50 in cell growth inhibition
Experimental: as §2, §3, §4

RS4-11 = assay: 7-day proliferation assay (WST-8), RS4-11; assay type: cell-based; conditions: Homo sapiens, RS4-11, 168 h; Table 6; 7 days; read-out: IC50 in cell growth inhibition
Experimental: as §2, §3, §5

MOLM-4 (MLL-AF9) = assay: 7-day proliferation assay (WST-8), MOLM-4; assay type: cell-based; conditions: 168 h, Table 6, 7 days, read-out: IC50 in cell growth inhibition
Experimental: as §2, §3, §4

MV4-11 = assay: 7-day proliferation assay (WST-8), MV4-11; assay type: cell-based; conditions: Homo sapiens, 168 h; Table 5; MV4-11; 7 days; read-out: IC50 in cell growth inhibition
Experimental: as §2, §3, §5

MOLM13 = assay: 7-day proliferation assay (WST-8), MOLM13; assay type: cell-based; conditions: Homo sapiens, MOLM-13, 168 h; Table 5; MOLM13; 7 days; read-out: IC50 in cell growth inhibition
Experimental: as §2, §3, §5

menin protein = menin protein (Homo sapiens (Human), UniProt O00255); assay: Fluorescence polarization (FP) competitive binding assay, menin binding affinity; conditions: menin protein 4 nM, probe 2 nM, room temperature 30 minutes
Chain of menin protein (O00255 whole entry): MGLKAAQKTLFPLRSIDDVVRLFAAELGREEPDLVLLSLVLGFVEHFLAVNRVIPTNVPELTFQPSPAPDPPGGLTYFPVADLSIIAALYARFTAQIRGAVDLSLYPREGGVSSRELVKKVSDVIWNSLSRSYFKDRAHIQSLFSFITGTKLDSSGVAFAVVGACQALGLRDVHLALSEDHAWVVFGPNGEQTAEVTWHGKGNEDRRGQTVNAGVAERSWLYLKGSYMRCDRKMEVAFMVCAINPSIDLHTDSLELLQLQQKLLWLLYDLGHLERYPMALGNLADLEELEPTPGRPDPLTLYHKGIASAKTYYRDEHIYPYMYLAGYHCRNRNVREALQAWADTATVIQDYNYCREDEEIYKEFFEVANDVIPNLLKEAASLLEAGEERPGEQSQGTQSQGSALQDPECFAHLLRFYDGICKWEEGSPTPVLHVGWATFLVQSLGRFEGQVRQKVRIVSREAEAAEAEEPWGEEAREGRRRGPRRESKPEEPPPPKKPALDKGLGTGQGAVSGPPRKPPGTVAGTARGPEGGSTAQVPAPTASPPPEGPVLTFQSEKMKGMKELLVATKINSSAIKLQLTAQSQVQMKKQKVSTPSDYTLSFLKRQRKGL
Method in brief: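 FAM-MM2, a FAM-labelled MLL1-peptide probe (2 nM), was preincubated with menin (4 nM) in PBS with 0.02% bovine γ-globulin, 4% DMSO and 0.01% Triton X-100. Compounds were added for 30 min at room temperature with shaking. FP (mP) was read at ex 485/em 530, and IC50 came from nonlinear regression of the competition curves.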

SEM cells = assay: 7-day proliferation assay (WST-8), SEM; assay type: cell-based; conditions: 168 h; Table 6; SEM (MLL-AF4); 7 days; read-out: IC50 in cell growth inhibition
Experimental: as §2, §3, §5

For `COC(=O)N[C@H]1CCC[C@@H]1[C@](C#N)(c1cccc(F)c1)C1CCN(CC2CN(c3ccc(S(=O)(=O)C4CN(C(=O)/C=C/CN(C)C)C4)cc3)C2)CC1` [Cpd. No. 57, methyl ((1S,2R)-2-((S)-cyano(1-((1-(4-((1-((E)-4-(dimethylamino)but-2-enoyl)azetidin-3-yl)sulfonyl)phenyl)azetidin-3-yl)methyl)piperidin-4-yl)(3-fluorophenyl)methyl)cyclopentyl)carbamate], the “MEIS1 and HOXA gene expression (mRNA levels of MEIS1, HOXA9 and HOXA11)” value ([1]; MV4;11, 6 h, RT-PCR (FIG. 5)) was “suppresses”, the “MEIS1 and HOXA gene expression (mRNA levels of MEIS1, HOXA9 and HOXA11)” value ([1]; MV4;11, 24 h, RT-PCR (FIG. 4)) was “suppresses” and the “MEIS1 and HOXA gene expression” value ([1]; MV4;11, summary sentence for FIG. 4, FIG. 5) was “suppresses”. The “MEIS1 and HOXA gene expression (mRNA levels of MEIS1, HOXA9 and HOXA11)” value ([2]; MOLM13, 24 h, different concentrations, RT-PCR (FIG. 6)) was “suppresses”, the “MEIS1 and HOXA gene expression” value ([2]; MOLM13, summary sentence for FIG. 6) was “suppresses” and the IC50 (SKM-1 (no MLL fusion)) was 900 nM. For the same compound, the IC50 (K562 (no MLL fusion)) was 4500 nM, the IC50 (MOLM-16 (no MLL fusion)) was 6500 nM and the IC50 (MonoMac6) was 10.3 nM. For the same compound, the IC50 (HL-60 (no MLL fusion)) was 1600 nM, the IC50 (RS4-11) was 9.4 nM and the IC50 (MOLM-4 (MLL-AF9)) was 31.3 nM. It also gave an IC50 (MV4-11) of 2.3 nM, an IC50 (MOLM13) of 15.4 nM and an IC50 (menin protein) of 3 nM. It also gave an IC50 (SEM cells) of 18 nM.

From patent publication US11045448B2, “Piperidines as covalent menin inhibitors” (THE REGENTS OF THE UNIVERSITY OF MICHIGAN, priority 2017, dated 2021)
